Laboratory results from PubChem BioAssay (NCI).
Several values for one entry are separate records, joined by “and”; a condition that tells them apart may be missing. Equal values may be shown once.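 Compound exposure: 48 hours, 5 concentrations, 96-well plates. GI50 marks 50% less growth. TGI is the concentration that stops growth completely.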 Where a SMILES comes first, the peptide text is derived from it. [ ]: non-standard residue; d: D form. The star is where a group is joined. mTyr = N[CH](Cc1cccc(O)c1)C(=O)O; Cbz = O=C(OCc1ccccc1)*; OBn = c1ccc(CO*)cc1

Legend:
Assay in all cases: NCI anticancer screen, dose series, 48 h
OVCAR-8 ovarian = tested on: OVCAR-8 ovarian
DU-145 prostate = tested on: DU-145 prostate
786-0 renal = tested on: 786-0 renal
MALME-3M melanoma = tested on: MALME-3M melanoma
LOX IMVI melanoma = tested on: LOX IMVI melanoma
NCI-H522 lung = tested on: NCI-H522 lung
HCC-2998 colon = tested on: HCC-2998 colon
M14 melanoma = tested on: M14 melanoma
MDA-N = tested on: MDA-N
TK-10 renal = tested on: TK-10 renal
BT-549 breast = tested on: BT-549 breast

SMILES	TGI (OVCAR-8 ovarian)	TGI (DU-145 prostate) [µM]	TGI (786-0 renal)	TGI (MALME-3M melanoma) [µM]	TGI (LOX IMVI melanoma) [µM]	TGI (NCI-H522 lung) [µM]	TGI (HCC-2998 colon) [µM]	TGI (M14 melanoma) [µM]	TGI (MDA-N) [µM]	TGI (TK-10 renal)	TGI (BT-549 breast) [µM]	GI50 (NCI-H522 lung) [µM]	GI50 (BT-549 breast) [µM]	GI50 (OVCAR-8 ovarian) [µM]	GI50 (DU-145 prostate) [µM]	GI50 (MALME-3M melanoma) [µM]	GI50 (LOX IMVI melanoma) [µM]	GI50 (HCC-2998 colon) [µM]	GI50 (M14 melanoma) [µM]	GI50 (TK-10 renal) [µM]
O[C@H]1[C@H](O)[C@@H](O)[C@@]2(O)C[C@@H](O)[C@@H]1N2	> 100 µM	> 100	> 100 µM	> 100	> 100	> 100	> 100	> 100	> 100	> 100 µM	–	–	–	–	–	–	–	–	–	–
O=C(/C=C/c1csc(-c2ccccc2)n1)NCc1ccc(C(=O)NCc2ccccc2)cc1	> 100 µM	> 100	> 100 µM	> 100	> 100	> 100	> 100	> 100	–	85.8 µM	> 100	–	–	–	–	–	–	–	–	–
O=C1NC(=S)N(c2ccccc2)C1=O	> 100 µM	> 100	> 100 µM	> 100	> 100	> 100	> 100	–	–	> 100 µM	–	–	–	–	–	–	–	–	–	–
CCCc1ccc(NCc2cc(OC)c(OC)c(OC)c2)cc1	> 100 µM	–	50.3 µM	50.4	30.7	34.3	–	–	–	> 100 µM	–	17.3	–	–	–	–	–	–	–	–
COc1ccc(/C=C2\CN(C)C/C(=C\c3ccc(OC)c(OC)c3OC)C2=O)c(OC)c1OC	0.343 µM	1.39	0.806 µM	0.333	0.319	0.473	0.335	0.283	1.25	2.33 µM	–	–	–	–	–	–	–	–	–	–
Cc1ccc2c(=O)cc(-c3ccc(-c4ccccc4)s3)[nH]c2n1	> 100 µM	> 100	> 100 µM	> 81.1	> 100	> 56.7	–	> 100	> 100	> 91.4 µM	> 100	–	–	–	–	–	–	–	–	–
Cc1ccc2nc(NC(=O)/C(Cc3nc4ccc(Cl)cc4[nH]c3=O)=N\NC(C)(C)C)sc2c1	> 100 µM	> 100	> 100 µM	–	> 100	–	> 100	> 100	> 100	–	> 100	–	–	–	–	–	–	–	–	–
CCC1(COC(NC(=O)c2ccccc2)(C(F)(F)F)C(F)(F)F)COC1	> 100 µM	–	> 100 µM	–	> 100	–	> 100	> 100	> 100	> 100 µM	> 100	–	–	–	–	–	–	–	–	–
CCOc1ccc(-n2nnc3c(N)nc(N)nc32)cc1	> 100 µM	> 100	> 100 µM	> 100	> 100	> 100	–	> 100	> 100	> 100 µM	> 100	–	–	–	–	–	–	–	–	–
O=C(CC(=O)Nc1ccccc1)N/N=C/c1cc(N=Nc2ccc(Br)cc2)ccc1O	> 10 µM	> 10	> 10 µM	> 10	> 10	–	> 10	> 10	> 10	> 10 µM	> 10	–	–	–	–	–	–	–	–	–
COc1cc([C@@H]2c3cc(O)c(OC)cc3C=C(C(N)=O)[C@H]2C(N)=O)ccc1O	> 100 µM	> 100	> 100 µM	> 100	> 100	> 100	> 100	> 100	> 100	–	–	–	–	–	–	–	–	–	–	–
CC(NC(C)(C)C)C(=O)c1cccc(Cl)c1 (stereo unspecified)	> 100 µM	–	> 100 µM	> 100	> 100	> 100	> 100	> 100	–	> 100 µM	–	–	–	–	–	–	–	–	–	–
CC1OC(O[C@H]2/C=C/C=C/C=C/C=C/C=C/C=C/C=C/[C@H](C)[C@@H](O)[C@@H](C)[C@H](C)OC(=O)CC(O)CC(O)CCC(O)C(O)CC(O)C[C@]3(O)C[C@H](O)C(C(=O)O)C(C2)O3)C(O)[C@H](N)C1O (stereo partly specified)	9.86 µM	7.22	–	3.68	3.6	6.02	18.7	5.96	–	5.31 µM	30.4	2.58	13.9	2.9	2.8	1.88	1.79	5.36	2.57	2.66
COC12c3ccccc3-c3ccccc3C1[C@H]1C(=O)OC(=O)[C@H]12 (stereo partly specified)	> 10 µM	> 10	> 10 µM	> 10	> 10	> 10	> 10	> 10	> 10	> 10 µM	–	–	–	–	–	–	–	–	–	–
Cc1ccc(N=Nc2c(O)c(C(=O)Nc3ccccc3)cc3ccccc23)c([N+](=O)[O-])c1	> 100 µM	> 100	> 100 µM	> 100	> 100	> 100	–	> 100	> 100	> 100 µM	> 100	–	–	–	–	–	–	–	–	–
COC(=O)c1cnn2c1n[n+]([O-])c1ccccc12	> 100 µM	> 100	> 100 µM	> 100	> 100	> 100	–	> 100	> 100	> 100 µM	> 100	–	–	–	–	–	–	–	–	–
CC1(C)OCC(C(O)C2OC(C)(C)OC2/C=N\O)O1 (stereo unspecified)	> 100 µM	–	> 100 µM	> 100	> 100	> 100	> 100	–	–	> 100 µM	–	–	–	–	–	–	–	–	–	–
COC(=O)C(Cc1cccc(O)c1)NC(=O)C(CC(=O)OCc1ccccc1)NC(=O)OCc1ccccc1 (stereo unspecified) (Cbz-Asp(OBn)-[mTyr]-OMe; configuration not given here)	> 100 µM	–	> 100 µM	> 100	–	–	> 100	> 100	> 100	> 100 µM	> 100	–	–	–	–	–	–	–	–	–
CC(C)=C/C=C1/CS(=O)(=O)C=C1C	> 100 µM	> 100	> 100 µM	> 100	> 100	> 100	> 100	> 100	> 100	> 100 µM	–	–	–	–	–	–	–	–	–	–
Cc1n[nH]c(=O)n1/N=C/c1ccc([N+](=O)[O-])o1	34.6 µM	22.3	36.3 µM	15.5	27.1	–	40.7	26.6	–	36.8 µM	36.6	–	–	–	–	–	–	–	–	–
C/C1=C\[C@@H](O)C(=O)/C=C/C=C\c2csc(n2)[C@@H](C)NC(=O)C[C@@]2(CC1)S(=O)SC(=O)[C@]2(C)O (stereo partly specified)	0.0624 µM and 0.0152 µM	0.114	0.0354 µM and 0.0108 µM	0.025	0.0605	0.0105	0.676	0.0397	–	0.861 µM and 0.138 µM	0.0062	–	–	–	–	–	–	–	–	0.0131
